These results are taken from patent US8748601B2, “Selective serine/threonine kinase inhibitors” (The Regents of the University of California, priority 2003, dated 2014).

For one test, the target named is T1, Rsk2 CTD (Homo sapiens, UniProt P51812).
T1 construct: We tested the halomethylketones against the Rsk2 CTD by adapting an in vitro kinase assay; made in house
Put plainly: Rsk2 CTD in vitro kinase assay, wild type. Particulars: read-out: IC50 for RSK2. The format is biochemical. An excerpt:
We tested the halomethylketones against the Rsk2 CTD by adapting an in vitro kinase assay developed by Chrestensen and Sturgill, J, Biol. Chem. 277:27733 (2002).

Test [1] has as its system RSK. As to the kind of experiment: RSK modification by fmk-pa in primary mouse macrophages (click chemistry). The format is cell-based. Particulars: pretreated for 1 h, LPS-stimulated. The method, then:
Confluent macrophages in 12-well plates were incubated in DMEM supplemented with 20 mM Hepes [pH 7.4] and 0.5% FBS for […] prior to treatment with the indicated concentrations of fmk-pa for 1 h at 37° C. After stimulation with either PMA ([…]) or LPS ([…]) for 30 min, cells were washed with cold PBS and harvested in PBS lysis buffer. Click chemistry was performed with TAMRA-N3 and proteins were subsequently analyzed by in-gel fluorescence scanning or Western blotting.
FIG. 11. Fmk-pa and click chemistry reveal the existence of a CTD-independent pathway for RSK Ser386 phosphorylation. […] Macrophages were cultured in 0.5% serum for 20 h and subsequently treated with the indicated concentrations of fmk-pa for 1 h. Cells were stimulated with either PMA (100 ng/mL) or LPS (1 mg/mL) for 30 min and harvested in PBS. Proteins were resolved by 10% SDS-PAGE and detected by Western blotting with antibodies to phospho-Ser386 RSK and total RSK2. […] Data represent mean±s.e.m. from 3 independent experiments. […] Proteins were resolved by 10% SDS-PAGE and detected by in-gel fluorescence scanning. […] Eluted proteins were resolved by 10% SDS-PAGE and detected by Western blotting with streptavidin-HRP or antibodies to RSK1, RSK2, and phospho-Ser386 RSK.

In test [2] the test system is rpS6 Ser235/236 phosphorylation. As to the kind of experiment: PMA-stimulated rpS6 Ser235/236 phosphorylation in HEK-293 cells. It counts as cell-based. The note with it: 300 nM fmk-pa together with rapamycin, HEK-293, PMA. The method, then:
(§1) Confluent HEK-293 cells in 12-well plates were deprived of serum for 2 h and subsequently treated with the indicated concentrations of inhibitors for 1 h at 37° C. After stimulation with PMA ([…]) for 30 min, cells were washed with cold PBS and harvested in either PBS lysis buffer (FIG. 9c) or hypertonic lysis buffer (FIG. 10). Click chemistry was performed with TAMRA-N3 in lysates from cells treated with fmk-pa. Proteins were analyzed by in-gel fluorescence scanning or Western blotting.
Serum-starved HEK-293 cells were treated with the indicated concentrations of rapamycin in the absence (left lanes) or presence (right lanes) of 300 nM fmk-pa for 1 h and stimulated with PMA (100 ng/mL) for 30 min. Proteins were resolved by 10% SDS-PAGE and detected by Western blotting with antibodies to phospho-Ser235/236 rpS6, phospho-Ser386 RSK, and total RSK2. […] Percent rpS6 Ser235/236 phosphorylation was determined by quantification of Western blots (e.g., FIG. 3a) relative to DMSO controls using ImageJ. Data represent mean±s.e.m. from 3 independent experiments.

The subject of test [3] is Rsk. Put plainly: Inhibition of RSK by fmk-pa (click chemistry, PMA-stimulated HEK-293 cells). Particulars: FIG. 9. It counts as cell-based. The method, then:
Click reactions were performed as previously described by Speers et al., “Profiling enzyme activities in vivo using click chemistry methods”. Chem Biol 11, 535-46 (2004). Briefly, RSK2 CTD (30 nM) pretreated with the indicated concentrations of fmk-pa, or lysates from fmk-pa-pretreated cells were incubated with TAMRA-N3 or biotin-N3 ([…]), TCEP (1 mM), CuSO4 (1 mM), and TBAT ([…]) in PBS [pH 7.4] containing 1% SDS for 1 h at room temperature.
as §1
RSK2 CTD was treated with the indicated concentrations of fmk-pa for 1 h followed by […] fmk-BODIPY for 1 h. After click conjugation with TAMRA-N3 (see Methods), proteins were resolved by 10% SDS-PAGE and detected by sequential in-gel fluorescence scanning using filters specific for TAMRA and BODIPY. […] Proteins were resolved by 10% SDS-PAGE and detected by in-gel fluorescence scanning (left) and Coomassie blue staining (right).

For orientation: IC50 means the point on the concentration scale where inhibition reaches its midpoint.

T1 sequence (P51812 422-679 limits assumed): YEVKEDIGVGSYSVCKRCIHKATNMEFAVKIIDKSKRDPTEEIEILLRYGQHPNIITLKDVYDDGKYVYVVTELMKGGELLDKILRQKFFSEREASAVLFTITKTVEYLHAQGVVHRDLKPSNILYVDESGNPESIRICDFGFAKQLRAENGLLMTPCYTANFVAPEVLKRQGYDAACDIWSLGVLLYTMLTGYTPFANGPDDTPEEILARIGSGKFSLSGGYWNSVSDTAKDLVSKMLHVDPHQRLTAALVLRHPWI

Consider `C#CCNCCCn1c(C(=O)CF)c(-c2ccc(C)cc2)c2c(N)ncnc21` [propargylamine-fmk 18], for which the IC50 on Rsk2 CTD was below 1 µM. Moreover, the “RSK modification in intact macrophages” value in the test with RSK [1] is “saturable RSK modification”. For the same compound, the “Inhibition of rpS6 phosphorylation” value in test [2] was “additive inhibition”. Moreover, the “Inhibition of RSK” value with Rsk [3] is “irreversible, selective, and potent inhibition”.
